Values joined by “and” are separate entries in the source; they are usually repeats but may differ in a detail not shown here. Equal entries are not always repeated. Where two headings read alike, the source gives them in different places.
Tested on: wild‐type BCG cells
Assay type: cell-based, M. bovis BCG
Conditions: for Mean Ratio (GDI5755_2d vs DMSO_2d): 2d; for Ratio: single ratios, GDI5755_3d vs DMSO_3d

Compound: O=C(Oc1ccc(Cl)cc1)c1ccc(N2CCOCC2)c([N+](=O)[O-])c1 [GDI‐5755]
- Mean Ratio (GDI5755_2d vs DMSO_2d) (protein BCG_3079c A0A0H3M8N0 NADPH-dependent FMN reductase-like domain-containing protein，FMN reductase, up-regulated): 1.67
- Mean Ratio (GDI5755_2d vs DMSO_2d) (protein BCG_3185c A0A0H3M8B9 Possible dioxygenase, up-regulated): 2.02
- Mean Ratio (GDI5755_2d vs DMSO_2d) (protein BCG_3281c A0A0H3MAS0 Probable transmembrane alkane 1-monooxygenase alkB, up-regulated): 1.48
- Mean Ratio (GDI5755_2d vs DMSO_2d) (protein BCG_3298 A0A0H3MAT3 DUF1490 family protein, up-regulated): 1.92
- Mean Ratio (GDI5755_2d vs DMSO_2d) (protein BCG_3319c A0A0H3MAV3 L-lysine 6-transaminase, up-regulated): 1.48
- Mean Ratio (GDI5755_2d vs DMSO_2d) (protein BCG_3476 A0A0H3MB64 Probable dioxygenase, up-regulated): 1.55
- Mean Ratio (GDI5755_2d vs DMSO_2d) (protein BCG_3588 A0A0H3M9C1 Probable conserved membrane protein, up-regulated): 1.81
- Mean Ratio (GDI5755_2d vs DMSO_2d) (protein BCG_3590 A0A0H3MBE7 Rieske-type oxygenase, up-regulated): 1.45
- Mean Ratio (GDI5755_2d vs DMSO_2d) (protein BCG_3591 A0A0H3MID2 Uncharacterized protein,BCG_3591, up-regulated): 1.62
- Mean Ratio (GDI5755_2d vs DMSO_2d) (protein BCG_3826c A1KQ98 Putative S-adenosyl-L-methionine-dependent methyltransferase BCG_3826c, up-regulated): 1.54
- Mean Ratio (GDI5755_2d vs DMSO_2d) (protein BCG_3917c A0A0H3MJE2 Monooxygenase ethA, up-regulated): 1.44
- Mean_Ratio_GDI5755_2d-VS-WT_2d_control (s002 sheet P value, unrounded): 3.462 and 2.763 and 2.713 and 2.648 and 2.17
- Mean_Ratio_GDI5755_2d-VS-WT_2d_control (s002 sheet annot_file, c8 (rounded)): 1.08 and 0.90 and 1.06 and 0.93 and 0.81
- Mean_Ratio_GDI5755_2d-VS-WT_2d_control (s002 sheet annot_file, c9 (unrounded)): 1.083 and 0.8951 and 1.059 and 0.9258 and 0.8124
- Mean_Ratio_GDI5755_3d-VS-WT_3d_control (s003 sheet P value): 3.94 and 2.77 and 2.53 and 2.26 and 2.25
- Mean_Ratio_GDI5755_3d-VS-WT_3d_control (s003 sheet annot_file): 1.18 and 1.02 and 1.00
- Ratio (protein A0A0G2Q9F3, BCG_0030c (Rv3924c), Large ribosomal subunit protein bL34): 0.8126 and 0.7464 and 0.864 and 0.7929
- Ratio (protein A0A0H3M7L0, BCG_2659c (Rv2632c), DUF1876 domain-containing protein): 0.6783 and 0.84 and 0.8345 and 0.8579
- Ratio (protein A0A0H3M8R4, BCG_3395 (Rv1267c), Possible transcriptional regulatory protein embR2): 0.7934 and 0.8013 and 0.8041 and 0.8107
- Ratio (protein A0A0H3M499, BCG_1243 (Rv1180/Rv1181), Probable polyketide beta-ketoacyl synthase pks3): 0.7824 and 0.8155 and 0.7985 and 0.8135
- Ratio (protein A0A0H3M677, BCG_1564 (Rv1500), Probable glycosyltransferase): 0.8075 and 0.8276 and 0.7828 and 0.8014
- Ratio (protein A0A0H3MA33, BCG_1381c (Rv1320c), Possible adenylate cyclase): 0.785 and 0.7965 and 0.7852 and 0.8412
- Ratio (protein A0A0H3MBI4, BCG_2001A (Rv1962A), Antitoxin VapB35): 0.8087 and 0.8452 and 0.7652 and 0.7971
- Ratio (protein A0A0H3MBL1, BCG_3682c (Rv3624c), Hypoxanthine phosphoribosyltransferase): 0.7684 and 0.8491 and 0.778 and 0.8193
- Ratio (protein A0A0H3MDB0, BCG_2775c (Rv2759c), Ribonuclease VapC): 0.8535 and 0.7284 and 0.8794 and 0.7453
- Ratio (protein A1KPC8, BCG_3507c (Rv3441c), Phosphoglucosamine mutase): 0.7677 and 0.7655 and 0.8493 and 0.8355
- proteome downregulated (third day, 2×MIC): 49.6%
- Mean_Ratio (GDI5755_3d vs DMSO_3d), protein BCG_0130 (up-regulated, A0A0H3M0N8, Mtb Rv0097, Possible oxidoreductase): 1.5
- Mean_Ratio (GDI5755_3d vs DMSO_3d), protein BCG_0176 (up-regulated, A0A0H3M1F5, Mtb MRA_0147, DUF427 domain-containing protein): 1.5
- Mean_Ratio (GDI5755_3d vs DMSO_3d), protein BCG_0623c (up-regulated, A0A0H3M1W6, Mtb Rv0578c, PE-PGRS family protein): 1.8
- Mean_Ratio (GDI5755_3d vs DMSO_3d), protein BCG_0353 (up-regulated, A0A0H3M1Y1, Mtb Rv0313, Transmembrane protein): 1.6
- Mean_Ratio (GDI5755_3d vs DMSO_3d), protein BCG_0227 (up-regulated, A0A0H3M2R5, Mtb Rv0190, Copper-sensing transcriptional repressor RicR): 1.4
- Mean_Ratio (GDI5755_3d vs DMSO_3d), protein BCG_0726c (up-regulated, A0A0H3M2T8, Mtb Rv0677c, Possible conserved membrane protein mmpS5): 1.4
- Mean_Ratio (GDI5755_3d vs DMSO_3d), protein BCG_1249 (up-regulated, A0A0H3M3D0, Mtb Rv1187, L-glutamate gamma-semialdehyde dehydrogenase): 1.6
- Mean_Ratio (GDI5755_3d vs DMSO_3d), protein BCG_1334 (up-regulated, A0A0H3M3I9, Mtb Rv1275, Lipoprotein lprC): 1.3
- Mean_Ratio (GDI5755_3d vs DMSO_3d), protein A0A0H3M3L0Rv1303 (up-regulated, A0A0H3M3L0, Conserved hypothetical transmembrane protein): 1.4
- Mean_Ratio (GDI5755_3d vs DMSO_3d), protein BCG_0507 (up-regulated, A0A0H3M3L9, Mtb Rv0467, isocitrate lyase): 1.5
- Mean_Ratio (GDI5755_3d vs DMSO_3d), protein BCG_1404c (up-regulated, A0A0H3M3N1, Mtb Rv1342c, Conserved membrane protein): 1.5
- Mean_Ratio (GDI5755_3d vs DMSO_3d), protein BCG_1053 (up-regulated, A0A0H3M3P8, Mtb MRA_1004, Uncharacterized protein): 1.5
- Mean_Ratio (GDI5755_3d vs DMSO_3d), protein BCG_1472c (up-regulated, A0A0H3M3S8, Mtb Rv1411c, Lipoarabinomannan carrier protein LprG): 1.4
- Mean_Ratio (GDI5755_3d vs DMSO_3d), protein BCG_0578c (up-regulated, A0A0H3M3U8, Mtb Rv0534c, 1,4-dihydroxy-2-naphthoate octaprenyltransferase, menA): 1.9
- Mean_Ratio (GDI5755_3d vs DMSO_3d), protein BCG_1661c (up-regulated, A0A0H3M4E4, Mtb Rv1623c, integral membrane cytochrome D ubiquinol oxidase (Subunit I) cydA): 1.6
- Mean_Ratio (GDI5755_3d vs DMSO_3d), protein BCG_1022 (up-regulated, A0A0H3M4W6, Mtb Rv0968, DUF1490 family protein): 1.5
- Mean_Ratio (GDI5755_3d vs DMSO_3d), protein BCG_1787 (up-regulated, A0A0H3M5K5, Mtb Rv1748, DUF4129 domain-containing protein): 1.4
- Mean_Ratio (GDI5755_3d vs DMSO_3d), protein BCG_1584c (up-regulated, A0A0H3M6A1, Mtb Rv1532c, Thioesterase domain-containing protein): 1.3
- Mean_Ratio (GDI5755_3d vs DMSO_3d), protein BCG_1795c (up-regulated, A0A0H3M6T8, Mtb MRA_1768B, Uncharacterized protein): 1.4
- Mean_Ratio (GDI5755_3d vs DMSO_3d), protein BCG_1998c (up-regulated, A0A0H3M7D9, Mtb Rv1959c, Toxin ParE1): 1.4
- Mean_Ratio (GDI5755_3d vs DMSO_3d), protein BCG_2583 (up-regulated, A0A0H3M7F6, Mtb Rv2560, proline and glycine rich transmembrane protein): 1.7
- Mean_Ratio (GDI5755_3d vs DMSO_3d), protein BCG_0282c (up-regulated, A0A0H3M7K8, Mtb Rv0244c, acyl-CoA dehydrogenase fadE5): 1.6
- Mean_Ratio (GDI5755_3d vs DMSO_3d), protein BCG_0287c (up-regulated, A0A0H3M7L3, Mtb Rv0249c, Succinate dehydrogenase [membrane anchor subunit]): 1.4
- Mean_Ratio (GDI5755_3d vs DMSO_3d), protein BCG_2072c (up-regulated, A0A0H3M7M3, Mtb Rv2053c, transmembrane protein): 1.6
- Mean_Ratio (GDI5755_3d vs DMSO_3d), protein BCG_2723 (up-regulated, A0A0H3M7S6, Mtb Rv2710, RNA polymerase sigma factor, sigB): 1.3
- Mean_Ratio (GDI5755_3d vs DMSO_3d), protein BCG_0422c (up-regulated, A0A0H3M7W9, Mtb Rv0384c, Chaperone protein ClpB): 1.5
- Mean_Ratio (GDI5755_3d vs DMSO_3d), protein BCG_3185c (up-regulated, A0A0H3M8B9, Mtb Rv3161c, Dioxygenase): 2.2
- Mean_Ratio (GDI5755_3d vs DMSO_3d), protein BCG_3195c (up-regulated, A0A0H3M8D0, Mtb Rv3171c, Possible non-heme haloperoxidase hpx): 1.4
- Mean_Ratio (GDI5755_3d vs DMSO_3d), protein BCG_0728c (up-regulated, A0A0H3M8M0, Mtb Rv0679c, Conserved hypothetical threonine rich protein): 1.4
- Mean_Ratio (GDI5755_3d vs DMSO_3d), protein BCG_3079c (up-regulated, A0A0H3M8N0, Mtb Rv3054c, NADPH-dependent FMN reductase-like domain-containing protein): 2.0
- Mean_Ratio (GDI5755_3d vs DMSO_3d), protein BCG_3084 (up-regulated, A0A0H3M8N5, Mtb Rv3059, Probable cytochrome P450 136 cyp136): 1.3
- Mean_Ratio (GDI5755_3d vs DMSO_3d), protein BCG_3153c (up-regulated, A0A0H3M8U1, Mtb Rv3130c, Diacylglycerol O-acyltransferase): 1.4
- Mean_Ratio (GDI5755_3d vs DMSO_3d), protein BCG_2517c (up-regulated, A0A0H3M8U9, Mtb Rv2497c, Probable pyruvate dehydrogenase E1 component (Alpha subunit) pdhA): 1.4
- Mean_Ratio (GDI5755_3d vs DMSO_3d), protein BCG_3184c (up-regulated, A0A0H3M8V5, Mtb Rv3160c, Possible transcriptional regulatory protein (Probably tetR-family)): 1.4
- Mean_Ratio (GDI5755_3d vs DMSO_3d), protein BCG_3588 (up-regulated, A0A0H3M9C1, Mtb Rv3524, Serine/threonine-protein kinase PknD(NU-6027 target)): 1.8
- Mean_Ratio (GDI5755_3d vs DMSO_3d), protein BCG_2721c (up-regulated, A0A0H3M9C3, Mtb Rv2708c, DUF3039 domain-containing protein): 1.4
- Mean_Ratio (GDI5755_3d vs DMSO_3d), protein BCG_1115 (up-regulated, A0A0H3M9F1, Mtb Rv1057, YVTN family beta-propeller repeat protein): 1.5
- Mean_Ratio (GDI5755_3d vs DMSO_3d), protein BCG_1130 (up-regulated, A0A0H3M9G5, conserved transmembrane protein): 1.5
- Mean_Ratio (GDI5755_3d vs DMSO_3d), protein BCG_2810c (up-regulated, A0A0H3M9L8, Mtb Rv2792c, Possible resolvase): 1.5
